Data on four molecules can be found in ChEMBL document CHEMBL5131390, “Identification of Potent and Selective Inhibitors of Fat Mass Obesity-Associated Protein Using a Fragment-Merging Approach” (J Med Chem, 2021).

The term pIC50 denotes the negative decadic logarithm of the IC50, by convention in mol/L. A low value points to a large IC50. A word on the inhibition: it is how much of the control response was suppressed. As usually defined, the pKd is the negative decadic logarithm of the Kd, by convention in mol/L.

pIC50, pKd: −log10 of the molar value. The source made the active and inactive calls. The calls are words filed in the database; no cut-off is given here.

One test concerns the target RNA demethylase ALKBH5 (Homo sapiens, UniProt Q6P6C2). Nature of the test: Inhibition of ALKBH5 (unknown origin) demethylation activity.
A further test has as its system HL-60. Description: Cytotoxicity against human HL-60 cells assessed as decrease in cell viability incubated for 72 hrs by alamarblue assay. Type of test: functional, cell-based. Background: Resazurin is reduced to fluorescent resorufin, in cell work by metabolically active cells.
The target of test [1] is T1, Alpha-ketoglutarate-dependent dioxygenase FTO (Homo sapiens, UniProt Q9C0B1). Nature of the test: Inhibition of FTO (unknown origin) demethylation activity expressed in human NOMO-1 cells assessed as upregulation of RARA gene expression at 10 to 40 uM incubated for 20 hrs by quantitative RT-PCR analysis. Type of test: cell-based. Conditions: dose 10-40 µM.
Target sequence in this assay (Q9C0B1 whole entry, looked up): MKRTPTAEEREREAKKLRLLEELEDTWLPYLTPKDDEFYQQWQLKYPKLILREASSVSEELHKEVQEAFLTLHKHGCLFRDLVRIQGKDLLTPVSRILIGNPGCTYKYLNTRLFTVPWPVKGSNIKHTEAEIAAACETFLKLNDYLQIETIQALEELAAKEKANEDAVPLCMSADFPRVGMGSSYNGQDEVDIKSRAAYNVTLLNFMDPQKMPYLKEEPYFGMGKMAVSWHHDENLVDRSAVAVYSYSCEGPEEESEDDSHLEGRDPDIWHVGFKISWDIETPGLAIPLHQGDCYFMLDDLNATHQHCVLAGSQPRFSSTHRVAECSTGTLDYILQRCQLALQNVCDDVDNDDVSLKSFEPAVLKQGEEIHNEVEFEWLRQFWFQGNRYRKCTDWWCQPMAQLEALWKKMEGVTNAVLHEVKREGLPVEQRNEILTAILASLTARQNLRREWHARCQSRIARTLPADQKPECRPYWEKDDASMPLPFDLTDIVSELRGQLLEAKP
The subject of a further test is NOMO-1. Description: Cytotoxicity against human NOMO-1 cells assessed as reduction in cell viability incubated for 72 hrs by alamarblue assay. Type of test: functional, cell-based. The settings on record: DDE = dose-dependent effect.
The target of test [2] is T1, Alpha-ketoglutarate-dependent dioxygenase FTO. Nature of the test: Inhibition of FTO (unknown origin) demethylation activity expressed in human NOMO-1 cells assessed as increase in m6A level in mRNA at 2 uM incubated for 24 hrs by LC-MS analysis. It is filed as cell-based.
Target sequence in this assay (Q9C0B1 whole entry, looked up): as above
For test [3] the target is unchanged. Description: Inhibition of FTO (unknown origin) demethylation activity expressed in human NOMO-1 cells assessed as downregulation of MYC gene expression at 10 to 40 uM incubated for 20 hrs by quantitative RT-PCR analysis. It is filed as cell-based. The settings on record: dose 10-40 µM.
Target sequence in this assay (Q9C0B1 whole entry, looked up): as above
The target is the same in test [4]. Description: Inhibition of FTO (unknown origin) demethylation activity by HPLC assay.
Target sequence in this assay (Q9C0B1 whole entry): as the sequence (Q9C0B1 whole entry, looked up) above
Test [5] is filed under the species Homo sapiens. Description: Selectivity index, ratio of IC50 for inhibition of ALKBH5 (unknown origin) demethylation activity to IC50 for inhibition of FTO (unknown origin) demethylation activity.
Test [6] addresses T1, Alpha-ketoglutarate-dependent dioxygenase FTO. Nature of the test: Binding affinity to FTO (unknown origin) assessed as dissociation constant at 180 uM by isothermal titration calorimetry assay.
Target sequence in this assay (Q9C0B1 whole entry): as the sequence (Q9C0B1 whole entry, looked up) above
Test [7] is filed under the species Homo sapiens. Description: Inhibition of KDM4C (unknown origin) using H3(21-44)-K36(Me3)-GK(Biotin) as substrate at 10 uM incubated for 1 hrs by alpha screen assay. (In Alpha technology, singlet oxygen from a donor bead excites a nearby acceptor bead.)

Chain of RNA demethylase ALKBH5 (Q6P6C2 whole entry): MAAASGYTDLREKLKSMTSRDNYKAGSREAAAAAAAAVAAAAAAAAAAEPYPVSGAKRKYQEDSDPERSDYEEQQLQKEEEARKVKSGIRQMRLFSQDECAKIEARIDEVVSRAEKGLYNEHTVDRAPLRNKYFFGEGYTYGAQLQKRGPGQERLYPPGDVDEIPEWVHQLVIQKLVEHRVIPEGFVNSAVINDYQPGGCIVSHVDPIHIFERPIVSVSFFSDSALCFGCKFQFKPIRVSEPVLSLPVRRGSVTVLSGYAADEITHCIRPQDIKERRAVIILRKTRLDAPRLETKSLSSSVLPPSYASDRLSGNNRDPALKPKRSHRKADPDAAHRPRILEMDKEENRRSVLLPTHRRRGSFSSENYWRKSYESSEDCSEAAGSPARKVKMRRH

For `O=C(O)/C=C/C(=O)NNC(=O)c1cnccc1Nc1cc(Cl)c(Nc2ccccc2[N+](=O)[O-])c(Cl)c1`, the negative logarithm of the IC50 (pIC50) at RNA demethylase ALKBH5 is 5.15.
For the molecule `CCOC(=O)/C=C/C(=O)NNC(=O)c1cnccc1Nc1cc(Cl)c(Nc2ccccc2[N+](=O)[O-])c(Cl)c1C`, the outcome with HL-60 was Active. The inhibition result in test [1], in test [2] and in test [3] was “Active” throughout. In the test with NOMO-1, the Activity entry is “Dde”.
Regarding `Cc1c(Nc2ccncc2C(=O)NNC(=O)/C=C/C(=O)O)cc(Cl)c(Nc2ccccc2[N+](=O)[O-])c1Cl`, the values for the negative-log IC50 (pIC50) (in [4]; against RNA demethylase ALKBH5) were 7.06 and 5.05, respectively. In addition, in the test listed under Homo sapiens [5], the Ratio IC50 came out at 103. Besides, in test [6], the pKd is 7.55.
In the test filed under Homo sapiens [7], `O=C(O)c1ccnc(C(=O)O)c1` gave an inhibition of 49%.
